This passage reports melting point results from a melting point compilation (Tetko et al.).

Bounds are passed on as bounds.

What is called melting point is the temperature, or range, at which the solid turns liquid. For the compound `O=C(O)c1sc(Br)c2c1OCCO2`, the melting point is 150 °C.
On to `CCOC(=O)c1cc(O)c(O)c(O)c1`, for which the melting point lay in the range of 151 to 154 °C.
In the case of `Cc1nc(-c2ccccc2)ncc1C(=O)NN` it was 185 to 187 °C; in that of `CC=C(C)Cl`, -19 °C; in that of `Cc1onc(-c2ccccc2)c1CN`, 66 to 68 °C.
`O=C(O)CCCC(=O)c1cccs1` came in with a melting point of 96 °C.
Consider `CC1CC(=O)C(=O)C1C` (stereo not given), for which the melting point is 64 to 69 °C.
`NC(=NO)c1ccc(Oc2ccc(F)cc2F)c([N+](=O)[O-])c1`: the melting point is 164 to 167 °C.
In the case of `OCc1cc2c(cc1Cl)OCO2` it was 70 °C.
`N#Cc1cccc(I)c1` had a melting point of 40 °C.
For the compound `O=C(Oc1c(F)c(F)c(F)c(F)c1F)c1ccncc1`, the melting point fell in the range of 47.5 to 55.5 °C.
The same measure for `CCCc1ccc(-c2ccccc2)cc1`: 15 to 17 °C; for `O=C(O)C=CC(=O)Nc1ccc(Cl)cc1`: 200 to 203 °C; for `CCOC(=O)c1c(C)oc(NC(=O)Nc2ccc(F)cc2)c1C(=O)OCC`: 146 to 148 °C.
In the case of `O=C(O)c1ccc(SSc2ccc(C(=O)O)cc2[N+](=O)[O-])c([N+](=O)[O-])c1` it was 308 °C.
The same measure for `Clc1ccc(-c2cn3c(n2)sc2ccccc23)cc1`: 158 to 160 °C.
`NC(=O)C12CC3CC(CC(C3)C1)C2`: the melting point turned out to be 189 °C.
`Cc1cc(=O)oc2cc(OC3OC(CO)C(O)C(O)C3O)ccc12` (stereo not given) had a melting point of 248 °C.
In the case of `NNC(=O)c1ccc(Cl)cc1Cl` it was 169 °C.
With `O=S(=O)(Cl)c1cc(Cl)c(O)c(Cl)c1`, the melting point amounted to 119 °C.
For `Brc1ccc(Oc2ccccc2)cc1Br`, the melting point was less than 20 °C.
The same measure for `Clc1nc(Br)ns1`: 24 to 25 °C; for `CC(=O)Oc1ccccc1C(=O)Oc1ccccc1C(=O)O`: 159 °C; for `COc1cc(C(=O)c2cccc(C)c2)c([N+](=O)[O-])cc1OC`: 121 °C.
The same measure for `CC12CCC3C4CCC(=O)C(O)=C4CCC3C1CCC2O` (stereo not given): 189 °C; for `Clc1cc(N2CCCCC2)ncn1`: 79 °C; for `O=[N+]([O-])c1ccc(Br)c(C(F)(F)F)c1`: 43 °C.
In the case of `CC(C)(C)OC(=O)NN` it was 39 °C; in that of `COc1cc([N+](=O)[O-])c(OC)cc1N`, 153 to 157 °C; in that of `CC(=O)c1c(O)c(C(C)(C)C)cc(C(C)(C)C)c1O`, 180 °C.
The compound `NNC(=O)CCc1ccc(O)cc1` yielded a melting point of 223 to 225 °C.
The same measure for `O=C(c1ccccc1)N1CCCCC1`: 49 °C; for `CNCCCCCCN(C)N(O)N=O`: 102 to 108 °C.
Regarding `CCCN(CCC)S(=O)(=O)c1ccc(C(=O)O)cc1`, the melting point turned out to be 198 °C.
Turning to `O=C(O)c1ccc(CN2CCCC2)cc1`, the melting point is 184 to 185 °C.
In turn, `CCCCCCCCc1ccc(NC(=O)c2ccc(CC)cc2)cc1` had a melting point of 109 °C.
The same measure for `CSC(=CC(=C(C#N)C#N)c1ccccc1)SC`: 117 to 121 °C; for `CCOC(=O)C(C#N)=C1Oc2ccccc2N1C`: 135 to 137 °C; for `O=Cc1c[nH]nc1-c1ccc(C(F)(F)F)cc1`: 113 to 115 °C.
Regarding `CN1CC(c2ccccc2)(c2ccccc2)C(=O)c2c(cc(-c3ccccc3)c3ccccc23)C1=O`, the melting point came out at 265 °C.
The same measure for `CCNc1nc(NC(C)CC)nc(OC)n1` (stereo not given): 87 °C; for `CC(CCC(=O)O)C1CCC2C3C(=O)CC4CCCCC4(C)C3CC(=O)C12C` (stereo not given): 176 °C; for `C=C(C)CCCCCCCCCCCCCCCCC`: 20 °C.
In turn, `CCCCCCCCCCCCCC(C)C` had a melting point of -7 °C.
In the case of `C=Cc1cccc(CC)c1` it was -101 °C; in that of `COc1cc2c(cc1OC)C(c1ccccc1)N(C(C)=O)CC2` (stereo not given), 195 to 197 °C.
Take `NCCc1c[nH]cn1`: the melting point stood at 86 °C.
The same measure for `COc1ccc([N+](=O)[O-])cc1Cl`: 94 to 96 °C; for `COC(=O)c1cccc(N)c1`: 52 to 55 °C; for `O=S1CCC1`: 31.5 °C.
The same measure for `O=C1C=CC(=O)N1c1ccccc1N1C(=O)C=CC1=O`: 245 to 248 °C; for `COc1ccc(NS(=O)(=O)c2ccc(N)cc2)nn1`: 182 °C; for `N#CC1(c2ccc(F)cc2)CCCCC1`: 33 to 38 °C.
The same measure for `CC12CCC(=O)CC1CCC1C2CCC2(C)C(O)(C(=O)CO)CCC12O` (stereo not given): 218 °C; for `O=S(=O)(Cl)c1cc2ccccc2s1`: 75 to 76 °C.
The compound `CN=C(NC)c1cc(C(C)(C)C)c(O)c(C(C)(C)C)c1` came in with a melting point of 206 °C.
In the case of `Nc1c(F)cc(Br)cc1Br` it was 63 °C; in that of `Cc1cc2c(cc1C)CCCC2`, 10 °C.
In the case of `CC(=O)Nc1cccc(N)c1` it was 84 to 88 °C; in that of `O=C(Cl)CCl`, -22 °C; in that of `COc1ccc(C(=CC(=O)N2CCOCC2)c2ccc(F)cc2)cc1OC`, 108 °C.
In the case of `FC1(F)C(F)(F)C(F)(F)C1(F)F` it was -40.1 °C; in that of `CNC(=O)C(C)(C(C)C)C(C)C`, 60 °C.
Take `O=C(O)/C(=C/c1cccc2ccccc12)c1ccccc1`: the melting point lay within 160 to 161 °C.
The same measure for `O[Si](O)(c1ccccc1)c1ccccc1`: 202 °C; for `CN(C)c1ccc(C2Nn3c(COc4ccccc4)nnc3S2)cc1` (stereo not given): 143 to 144 °C.
`CC(CO)c1ccccc1` (stereo not given) returned a melting point of -13 °C.
In the case of `Cc1ccsc1C(=O)O` it was 147 °C.
Turning to `O=C1NN=C(C(F)(F)F)C1=NNc1ccccc1`, the melting point was found to be 186 °C.
`Fc1nc(F)nc(F)n1` returned a melting point of -38 °C.
With `CCCCc1ccc(N=Cc2ccc(C=Nc3ccc(CCCC)cc3)cc2)cc1`, the melting point came to 232 °C.
Take `CCNC(=O)CC#N`: the melting point fell in the range of 73 to 74 °C.
As to `O=C(CO)c1ccc(Br)cc1`, the melting point is 137 to 142 °C.
Regarding `CC(=O)c1cc(Br)cc([N+](=O)[O-])c1O`, the melting point turned out to be 131 °C.
In the case of `CCSc1nnc(N)s1` it was 133 to 136 °C; in that of `CCOC(=O)c1c(NC(=S)Nc2ccc(F)cc2)sc2c1CCCC2`, 209 to 211 °C.
The same measure for `Nc1ccc(C(=O)O)cc1OC(F)(F)F`: 168 to 169 °C; for `COC(=O)C1=C(N)Oc2cc(C)n(CCc3ccccc3)c(=O)c2C1c1ccc(OC)cc1` (stereo not given): 211 to 213 °C.
The same measure for `COc1ccc(C(=O)c2ccc(Cl)cc2)cc1OC`: 109 °C.
In turn, `C=C(C)CCCCCCCC` yielded a melting point of -51 °C.
The same measure for `CCCCCC#CC(=O)O`: 4 °C; for `CC(=O)Cc1ccccc1`: -15 °C; for `CC1CCNCC1`: 5 °C.
In the case of `CC(C)c1cc(C(C)C)c(S(=O)(=O)Cl)c(C(C)C)c1` it was 96 °C; in that of `COC(=O)c1ccc(-c2ccccc2)nc1`, 110 °C; in that of `O=C1OC(=O)C2CCC12` (stereo not given), 73 to 76 °C.
`CC1=CCC(=O)Nc2c1cnn2-c1ccc(Cl)cc1` yielded a melting point of 177 to 178 °C.
Turning to `BrCc1nc2ccccc2nc1CBr`, the melting point was in the range of 150 to 154 °C.
In the case of `CC(CCC(N)=O)n1nc2ccccc2n1` (stereo not given) it was 102 °C.
With `NNC(=O)c1ccsc1`, the melting point is 126 to 128 °C.
As to `COc1ccc(S(N)(=O)=O)c(OC)c1`, the melting point was 168 °C.
Regarding `C=CCC1(C(C)C)C(=O)NC(=O)N(C)C1=O` (stereo not given), the melting point is 56.5 °C.
The same measure for `Cc1cc(C)cc(CC(=O)O)c1`: 101 °C; for `COc1ccc(O)c(C(=O)O)c1`: 143 °C.
The same measure for `COc1c(C(=O)O)csc1Br`: 155 to 156 °C.
The compound `O=[N+]([O-])c1ccc(NN=Cc2cccc3c(Br)ccc([N+](=O)[O-])c23)cc1` registered a melting point of 205 °C.
The same measure for `COc1ccc(N=C=S)c([N+](=O)[O-])c1`: 111 to 113 °C; for `CC(=O)OC1=C(C(C)C)C(=O)C2=C(C1=O)C1(C)CCCC(C)(C)C1CC2OC(C)=O` (stereo not given): 121 °C.
`O=C1C2=C(NC1C(=O)c1ccc(Br)cc1)Oc1c(c(=O)oc3ccccc13)C2c1ccc(Br)cc1` (stereo not given): the melting point turned out to be 230 °C.
In the case of `Nc1c(CN2CCCC2)c(=O)oc2ccccc12` it was 197 °C; in that of `CCC(C)NC(=O)C(C(F)(F)F)C(F)(F)F` (stereo not given), 110 to 113 °C.
In the case of `N#Cc1ccc(CS(=O)(=O)Cl)cc1` it was 99.5 to 102 °C.
As to `OCCSCCCCCCCCCCSCCO`, the melting point stood at 69.5 °C.
In turn, `Cc1ccc(C#N)c([N+](=O)[O-])c1` gave a melting point of 97 °C.
Compound `Cc1ccc2c(c1)OC(C)(c1ccc(C)cc1OC(=O)c1ccccc1)CC2(C)C` (stereo not given) yielded a melting point of 149 °C.
`C[C@]12CCC(=O)C=C1CCC[C@@H]2O` registered a melting point of 57 °C.
In the case of `C/C(=N\CC(O)CO)c1c(O)c2ccccc2n(-c2ccccc2)c1=O` (stereo not given) it was 217 to 218 °C.
In the case of `CCCCCCCC(=O)OC` it was -40 °C; in that of `Cn1c(=O)c(C2=NNC(=O)C2=CNc2cccnc2)c(O)c2ccccc21`, 281 °C.
The same measure for `CCCCCCC(O)CC` (stereo not given): 22 °C.
`O=C1CCC(=O)N1I` returned a melting point of 204 °C.
`NNc1cc(C(F)(F)F)ccc1Cl` came in with a melting point of 64 to 68 °C.
In the case of `CCCSCC` it was -117 °C; in that of `COC(OC)(OC)OC`, -5 °C; in that of `COC1N(c2ccccc2)N=C(c2ccccc2)N1c1ccccc1` (stereo not given), 80 °C.
